Test results reported in US10842765B2, “Methods of reducing or preventing oxidation of small dense ldl or membrane polyunsaturated fatty acids” (Amarin Pharmaceuticals Ireland Limited, priority 2016, dated 2020).

Key:
human sdLDL [1] = experiment: Copper-induced sdLDL oxidation, TBARS, Example 7; type: biochemical; conditions: each agent 10 μM; 1 hr
Experimental: Samples were prepared at 100 μg/mL sdLDL and incubated with EPA or DHA (10.0 μM each) for 30 minutes prior to initiating lipid oxidation using 10 μM CuSO4. Samples were maintained at 37° C. in a shaking water bath for 1 hour. Lipid oxidation was measured by colorimetric assay of TBARS formation and expressed as molar equivalents of MDA.
An experiment to study the antioxidant effect of EPA in LDL and small dense LDL (“sdLDL”) was performed. LDL and sdLDL were isolated from the plasma of healthy volunteers by iodixanol density gradient ultracentrifugation, and adjusted to a final apolipoprotein concentration of 2 mg/mL. […] Lipid oxidation was initiated with 10 μM CuSO4 and monitored by the colorimetric detection of thiobarbituric acid reactive substances (TBARS) for 1 hr. Vitamin E was also incubated with sample aliquots as a positive control.

human LDL = experiment: Copper-induced unfractionated LDL oxidation, TBARS, Example 7; type: biochemical; conditions: each agent 10.0 μM; 1 hour
HMG-CoA reductase = target: T1, HMG-CoA reductase (Homo sapiens, UniProt P04035); conditions: primary pharmacokinetic studies; hepatic cytochrome P450 metabolism; cited from earlier work
T1 sequence (P04035 1-888): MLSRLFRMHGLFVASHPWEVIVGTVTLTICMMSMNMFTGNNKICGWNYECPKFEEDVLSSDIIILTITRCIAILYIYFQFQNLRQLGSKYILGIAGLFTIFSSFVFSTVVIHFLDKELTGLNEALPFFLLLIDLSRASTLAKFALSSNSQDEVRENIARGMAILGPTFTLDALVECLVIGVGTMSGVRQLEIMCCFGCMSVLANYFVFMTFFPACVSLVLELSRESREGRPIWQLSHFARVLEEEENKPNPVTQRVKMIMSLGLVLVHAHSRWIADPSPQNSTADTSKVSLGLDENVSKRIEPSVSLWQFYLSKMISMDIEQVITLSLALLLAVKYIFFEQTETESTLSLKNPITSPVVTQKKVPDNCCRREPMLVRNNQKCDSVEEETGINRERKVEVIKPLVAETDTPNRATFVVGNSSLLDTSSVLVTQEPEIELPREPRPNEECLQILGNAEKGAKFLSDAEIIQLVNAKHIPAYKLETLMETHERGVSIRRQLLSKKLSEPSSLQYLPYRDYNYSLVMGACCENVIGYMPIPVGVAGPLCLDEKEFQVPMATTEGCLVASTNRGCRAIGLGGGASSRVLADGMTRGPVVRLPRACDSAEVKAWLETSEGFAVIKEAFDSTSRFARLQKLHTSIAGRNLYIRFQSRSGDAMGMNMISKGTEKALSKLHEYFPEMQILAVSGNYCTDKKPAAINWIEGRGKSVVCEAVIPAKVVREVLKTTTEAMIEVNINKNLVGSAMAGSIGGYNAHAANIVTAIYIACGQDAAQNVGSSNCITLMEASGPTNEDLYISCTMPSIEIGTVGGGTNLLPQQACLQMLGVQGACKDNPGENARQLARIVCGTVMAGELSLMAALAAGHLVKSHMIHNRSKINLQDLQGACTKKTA

[2] = Glucose-induced membrane lipid peroxidation (LOOH) in lipid vesicles, Example 4; type: biochemical; conditions: 72- and 96-hour time points; 1:30 drug-to-phospholipid mole ratio; glucose
Experimental: An experiment was conducted to test the ability of EPA to interfere with the effects of high glucose on membrane lipid peroxidation and organization in vesicles enriched with PUFAs. […] Vitamin E (α-tocopherol) was also purchased from Sigma-Aldrich and prepared in ethanol at 1.0 mM (ε=3.06×10^4 M^−1 cm^−1 at 294 nm) just prior to experimental use. […] All test compounds were further diluted in ethanol or aqueous buffer as needed. Glucose was prepared in saline buffer (0.5 mM HEPES, 154 mM NaCl, pH 7.3) at 11.0 mM (200 mg/dL). CHOD-iodide color reagent (stock) was prepared, with slight modification, as described by from El-Saadani et al. (J. […] Samples were shell-dried under nitrogen gas and placed under vacuum for 1 h to remove residual solvent. […] Lipid suspensions were then vortexed for 3 min at ambient temperature to form MLVs. All MLV samples were subjected to time-dependent autoxidation by incubating at 37° C. in an uncovered, shaking water bath. This method allows lipid peroxidation to occur gradually without requiring the use of exogenous initiators. Small aliquots (5-100 μL) of each sample were removed, immediately following MLV preparation (0 hour) and after exposing samples to oxidative conditions for 72 or 96 hour, and combined with 1.0 mL of activated CHOD-iodide color reagent. Aliquot volume was reduced with each successive time point to ensure that spectrophotometric readings were within the optimal adsorption range. Test samples were covered and incubated in darkness at room temperature for at least 4 hr. Sample absorbances were then measured against a CHOD blank at 365 nm using a Beckman DU-640 spectrophotometer. The CHOD colorimetric assay is based on the oxidation of iodide (I^−) by lipid hydroperoxide (LOOH) to form triiodide (I3^−), the quantity of which is directly proportional to the amount of LOOH present in the lipid sample. The molar absorptivity (I3^−) of I3^− is 2.46×10^4 M^−1 cm^−1 at 365 nm. […]

human sdLDL [3] = experiment: Copper-induced sdLDL oxidation, TBARS after 2 hr, Example 6; type: biochemical; conditions: 1.0 μM to 10.0 μM
Experimental: An experiment to study the antioxidant effect of EPA in small dense […] performed. […] Vitamin E (α-tocopherol) was purchased from Sigma-Aldrich and prepared in ethanol at 1.0 mM (ε=3.06×10^4 M^-1 cm^-1 at 294 nm) just prior to experimental use. All test compounds were further diluted in ethanol or aqueous buffer as needed. Venous blood was collected from healthy volunteers into vacutainer tubes containing sodium EDTA. Plasma was separated by centrifugation at 3000 g for 25 min at 4° C. and adjusted to a density of 1.020 g/mL with KBr. Triglyceride-rich lipoproteins (TGRL) and LDL fractions were then isolated bysequential centrifugation at 70,000 rpm at 4° C. in a Beckman LE-80 ultracentrifuge using a Beckman 50.4Ti rotor (Beckman Coulter, Inc., Fullerton, Calif.). The TGRL fraction (with a relative density of <1.020) was aspirated from the top of the centrifugate and discarded, leaving an LDL-enriched […] relative density of 1.020 to 1.063). […] The sdLDL subfraction was retained for additional experimentation. Plasma and lipoprotein fractions were maintained at 4° C. and protected from excessive exposure to light. […] Differences between groups were analyzed using the two-tailed, Student's t-test (for comparisons between only two groups) or ANOVA followed by Dunnett or Student-Newman-Keuls multiple comparisons post-hoc analysis (for comparisons between three or more groups).

unfractionated LDL = experiment: Copper-induced unfractionated LDL oxidation, TBARS, Example 6; type: biochemical, human; conditions: 1.0 μM to 10.0 μM; data not shown
Experimental: All test compounds were further diluted in ethanol or aqueous buffer as needed. Venous blood was collected from healthy volunteers into vacutainer tubes containing sodium EDTA. […] Plasma and lipoprotein fractions were maintained at 4° C. and protected from excessive exposure to light. Prior to oxidation experiments, EDTA was removed from the lipoprotein fraction using PD-10 desalting columns (GE Healthcare, Piscataway N.J.). After equilibration of the column with phosphate buffered saline (PBS), 2.5 mL of the lipoprotein fraction was loaded on the column and the flow-through discarded. The lipoprotein was then eluted with 3 mL of PBS. The LDL fractions were further diluted with PBS to obtain a 100 μg/mL apoB100 concentration. […] Differences between groups were analyzed using the two-tailed, Student's t-test (for comparisons between only two groups) or ANOVA followed by Dunnett or Student-Newman-Keuls multiple comparisons post-hoc analysis (for comparisons between three or more groups).

[4] = test system: small dense LDL (sdLDL) isolated from human subjects; experiment: Glucose-induced sdLDL oxidation (MDA/TBARS), Example 10; type: biochemical; conditions: 10 μM; glucose 200 mg/dL; 1 hr
Experimental: Vitamin E (α-tocopherol) purchased from Sigma-Aldrich was prepared in ethanol at 1.0 mM (ε=3.06×10^4 M^−1 cm^−1 at 294 nm) prior to experimental use. Test compounds were further diluted in ethanol or aqueous buffer as needed. Phosphate Buffered Saline (PBS) purchased from Sigma-Aldrich was prepared in double distilled water at 10 mM (138 mM NaCl, 2.7 mM KC, pH 7.4). Glucose prepared in PBS was added to test samples to achieve a final concentration of 11.0 mM (200 mg/dL).
LDL and sdLDL were isolated from the plasma of healthy volunteers by iodixanol density gradient ultracentrifugation and adjusted to a final apolipoprotein concentration of 10 mg/mL. […] Sample aliquots were incubated at 100° C. for 30 minutes and then assayed for the formation of thiobarbituric acid-reactive substances (TBARS), having a molar absorptivity (ε) value of 1.56×10^5 M^−1 cm^−1 at 532 nm and were derived principally from the reaction of thiobarbituric acid with malondialdehyde (MDA). Lipid oxidation was measured by the colorimetric detection of malondialdehyde (MDA), a marker of oxidative stress.
Data were presented as mean±SD for (n) separate samples or experiments. Differences between groups were analyzed using the unpaired, two-tailed Student's t-test (for comparisons between only two groups) or ANOVA followed by Student-Newman-Keuls multiple comparisons post hoc analysis (for comparisons between three or more groups). Only differences with probability values less than 0.05 were considered significant.

Structure (SMILES) | inhibition of sdLDL oxidation (TBARS formation) vs vehicle (human sdLDL [1]) | effect on unfractionated LDL oxidation (human LDL) | share of circulating HMG-CoA reductase inhibitory activity accounted for by active metabolites (HMG-CoA reductase) | effect on LOOH formation / lipid peroxidation [2] | inhibition of sdLDL oxidation (human sdLDL [3]) | inhibition of LDL oxidation (unfractionated LDL) | increase of sdLDL oxidation as compared to glucose-treated controls [4] | inhibition of glucose-induced sdLDL oxidation (in words) [4]
CC(C)c1c(C(=O)Nc2ccccc2)c(-c2ccccc2)c(-c2ccc(F)cc2)n1CC[C@@H](O)C[C@@H](O)CC(=O)O [atorvastatin] | 0.1±7% | did not have any significant antioxidant activity | approximately 70% |  |  |  |  | 
Cc1c(C)c2c(c(C)c1O)CC[C@@](C)(CCC[C@H](C)CCC[C@H](C)CCCC(C)C)O2 [vitamin E, α-tocopherol] |  | no significant effect on unfractionated LDL oxidation |  | no significant effect on lipid peroxidation | did not inhibit sdLDL oxidation except at the highest concentration | did not inhibit LDL oxidation at any concentration | 63% | failed to inhibit sdLDL oxidation
Cc1ccc(C)c(OCCCC(C)(C)C(=O)O)c1 [Gemfibrozil, gemfibrozil] |  | no significant effect on unfractionated LDL oxidation |  |  |  |  |  | did not inhibit glucose-induced sdLDL oxidation
O=C(O)c1cccnc1 [Niacin, nicotinic acid] |  | no significant effect on unfractionated LDL oxidation |  |  |  |  |  | did not inhibit glucose-induced sdLDL oxidation
